Measurements from BindingDB's records for patent US20250057848 (Neurim Pharmaceuticals (1991), 2025).

Target: Neurotensin receptor type 1 (Homo sapiens, UniProt P30989)
Assay: Binding of Neurotensin to the NTSR1 Receptor
From the text: However, the potency of GAL 475 at these receptors was lower than 1 micromolar and therefore not considered to be pharmacologically interesting. […] GAL475 was subsequently tested for PAM activity at the human NTS1 (FAST-0330I) and NTS2 (FAST-0331I) receptors, at 100-50,000 nanomolar concentrations.

Chain of Neurotensin receptor type 1 (P30989 whole entry): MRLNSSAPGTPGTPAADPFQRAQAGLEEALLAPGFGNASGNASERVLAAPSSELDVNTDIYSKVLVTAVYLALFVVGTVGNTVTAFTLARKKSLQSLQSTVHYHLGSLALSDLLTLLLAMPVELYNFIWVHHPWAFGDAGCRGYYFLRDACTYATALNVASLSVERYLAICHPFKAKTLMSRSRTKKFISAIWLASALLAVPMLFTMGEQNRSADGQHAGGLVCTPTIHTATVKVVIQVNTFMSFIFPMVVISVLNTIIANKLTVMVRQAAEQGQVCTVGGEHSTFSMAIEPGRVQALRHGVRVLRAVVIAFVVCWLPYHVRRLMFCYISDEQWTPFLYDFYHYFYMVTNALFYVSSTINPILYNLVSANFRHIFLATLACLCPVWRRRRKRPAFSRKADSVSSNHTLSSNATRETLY

CCCNc1nc(NC)nc2c1NC(NC)N=C2NCC(C)(C)O (stereo unspecified) [US20250057848, Compound GAL-475]
EC50: 355 nM
